Experimental data: PMC10531311, “Anti-Inflammatory Activities of 8-Benzylaminoxanthines Showing High Adenosine A2A and Dual A1/A2A Receptor Affinity” (International Journal of Molecular Sciences, 2023)

How the values were obtained:
human MAO B = biological target: T1, human MAO B (Homo sapiens, UniProt P27338); assay: Human MAO B inhibition, fluorometric method; assay type: biochemical; settings: mean of two independent experiments, read-out: % of hMAO B Inhibition at 1 µM
T1 sequence (P27338 1-520): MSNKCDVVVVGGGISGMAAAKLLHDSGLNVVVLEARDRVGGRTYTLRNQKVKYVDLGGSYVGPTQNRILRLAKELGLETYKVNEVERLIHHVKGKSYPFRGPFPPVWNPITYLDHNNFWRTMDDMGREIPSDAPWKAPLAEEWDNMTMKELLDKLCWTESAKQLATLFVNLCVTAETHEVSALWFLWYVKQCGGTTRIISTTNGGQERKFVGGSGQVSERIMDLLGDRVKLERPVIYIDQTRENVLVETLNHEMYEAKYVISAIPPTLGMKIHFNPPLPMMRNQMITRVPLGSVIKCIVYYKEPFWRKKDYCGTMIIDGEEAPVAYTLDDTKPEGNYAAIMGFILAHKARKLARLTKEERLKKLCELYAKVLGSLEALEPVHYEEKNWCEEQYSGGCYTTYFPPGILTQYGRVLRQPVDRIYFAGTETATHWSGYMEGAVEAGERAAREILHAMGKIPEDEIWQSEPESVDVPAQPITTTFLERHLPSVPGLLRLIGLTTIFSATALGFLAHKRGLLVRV
Method: The compounds were tested twice in duplicates at a concentration of 1 μM by fluorometric method as previously described. Paratyramine (200 μM) was used as a substrate for the enzyme. Safinamide (1 μM; reversible) and rasagiline (1 μM; irreversible) were used as reference inhibitors.

human adenosine A1R = biological target: T2, human adenosine A1R (Homo sapiens, UniProt P30542); assay: Radioligand binding at human adenosine A1 receptor vs. [3H]CCPA; settings: for inhibition at 1 µM: CHO cells, read-out: A1R vs. [³H]CCPA % Inhibition ± SEM at 1 µM; for Ki: human recombinant receptor in CHO cells, read-out: A1R vs. [³H]CCPA Ki ± SEM
T2 construct: expressed in transfected cells; host or cells: CHO cells
T2 sequence (P30542 1-326): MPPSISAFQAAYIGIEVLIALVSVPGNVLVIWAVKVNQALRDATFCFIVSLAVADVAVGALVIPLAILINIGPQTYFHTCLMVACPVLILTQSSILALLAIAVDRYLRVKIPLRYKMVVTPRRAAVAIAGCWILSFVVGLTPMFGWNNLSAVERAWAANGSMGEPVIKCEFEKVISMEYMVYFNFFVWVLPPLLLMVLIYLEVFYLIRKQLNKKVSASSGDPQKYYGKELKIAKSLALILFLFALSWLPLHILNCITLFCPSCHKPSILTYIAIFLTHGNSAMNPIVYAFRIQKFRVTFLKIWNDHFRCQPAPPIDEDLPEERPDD
Method: (§1) Affinities for adenosine receptors were evaluated in radioligand binding assays as previously described. Human adenosine receptors were stably expressed in CHO cells. The following radioligands were used: [^3H]2-chloro-N^6-cyclopentyladenosine ([^3H]CCPA) for A1R; [^3H]3-(3-hydroxypropyl)-7-methyl-8-(m-methoxystyryl)-1-propargylxanthine ([^3H]MSX-2) for A2AR; [^3H]8-(4-(4-(4-chlorophenyl)piperazine-1-sulfonyl)phenyl)-1-propylxanthine ([^3H]PSB-603) for A2BR; [^3H]phenyl-8-ethyl-4-methyl-(8R)-4,5,7,8-tetrahydro-1H-imidazo [2,1-i]purine-5-one ([^3H]PSB-11) for A3R. Initially, compounds were tested at a concentration of 1 µM. […] At least three independent experiments were performed. Data were analyzed using GraphPad PRISM version 5.0 or higher (Graph Pad, San Diego, CA, USA). Ki were calculated using the Cheng–Prusoff equation.

human adenosine A2BR = biological target: T3, human adenosine A2BR (Homo sapiens, UniProt P29275); assay: Radioligand binding at human adenosine A2B receptor vs. [3H]PSB-603; settings: for Ki: human recombinant receptor in CHO cells, read-out: A2BR vs. [³H]PSB-603 Ki ± SEM; for inhibition at 1 µM: CHO cells, read-out: A2BR vs. [³H]PSB-603 % Inhibition ± SEM at 1 µM
T3 construct: expressed in transfected cells; host or cells: CHO cells
T3 sequence (P29275 1-332): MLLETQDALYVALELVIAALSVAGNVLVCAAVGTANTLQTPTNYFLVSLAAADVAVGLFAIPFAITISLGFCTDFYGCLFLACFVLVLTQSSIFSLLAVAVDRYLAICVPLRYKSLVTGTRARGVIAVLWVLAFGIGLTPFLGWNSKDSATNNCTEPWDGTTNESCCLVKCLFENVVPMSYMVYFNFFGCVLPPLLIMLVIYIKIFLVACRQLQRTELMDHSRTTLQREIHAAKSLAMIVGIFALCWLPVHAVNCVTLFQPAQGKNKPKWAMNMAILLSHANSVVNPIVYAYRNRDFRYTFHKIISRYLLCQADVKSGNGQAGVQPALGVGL
Method: as §1

human adenosine A3R = biological target: T4, human adenosine A3R (Homo sapiens, UniProt P0DMS8); assay: Radioligand binding at human adenosine A3 receptor vs. [3H]PSB-11; settings: for inhibition at 1 µM: CHO cells, read-out: A3R vs. [H³]PSB-11 % Inhibition ± SEM at 1 µM; for Ki: human recombinant receptor in CHO cells, read-out: A3R vs. [H³]PSB-11 Ki ± SEM
T4 construct: expressed in transfected cells; host or cells: CHO cells
T4 sequence (P0DMS8 1-318): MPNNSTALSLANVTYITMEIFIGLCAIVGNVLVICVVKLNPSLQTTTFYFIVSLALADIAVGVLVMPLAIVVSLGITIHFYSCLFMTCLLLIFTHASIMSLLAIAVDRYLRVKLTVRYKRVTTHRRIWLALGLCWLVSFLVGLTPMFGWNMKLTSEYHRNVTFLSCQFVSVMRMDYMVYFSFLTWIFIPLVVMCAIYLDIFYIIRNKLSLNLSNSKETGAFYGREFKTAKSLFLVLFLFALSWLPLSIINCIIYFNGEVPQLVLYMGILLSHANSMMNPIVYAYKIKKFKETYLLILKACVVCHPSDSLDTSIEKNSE
Method: as §1

human adenosine A2AR = biological target: T5, human adenosine A2AR (Homo sapiens, UniProt P29274); assay: Radioligand binding at human adenosine A2A receptor vs. [3H]MSX-2; settings: for Ki: human recombinant receptor in CHO cells, read-out: A2AR vs. [³H]MSX-2 Ki ± SEM
T5 construct: expressed in transfected cells; host or cells: CHO cells
Method: as §1

T5 sequence (P29274 whole entry): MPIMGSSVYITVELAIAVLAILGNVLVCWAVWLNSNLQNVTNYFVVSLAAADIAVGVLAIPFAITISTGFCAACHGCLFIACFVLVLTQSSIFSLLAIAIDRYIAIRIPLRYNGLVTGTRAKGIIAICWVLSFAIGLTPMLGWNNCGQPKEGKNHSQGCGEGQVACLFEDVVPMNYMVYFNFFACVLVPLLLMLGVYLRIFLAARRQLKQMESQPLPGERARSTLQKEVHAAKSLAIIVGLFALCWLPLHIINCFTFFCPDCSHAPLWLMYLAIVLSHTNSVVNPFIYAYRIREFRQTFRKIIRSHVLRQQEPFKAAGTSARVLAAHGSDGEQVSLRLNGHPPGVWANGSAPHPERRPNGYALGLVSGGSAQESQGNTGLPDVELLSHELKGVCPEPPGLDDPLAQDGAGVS

SMILES | inhibition at 1 µM (human MAO B) | inhibition at 1 µM (human adenosine A1R) | Ki (human adenosine A1R) | Ki (human adenosine A2BR) | inhibition at 1 µM (human adenosine A3R) | Ki (human adenosine A3R) | Ki (human adenosine A2AR) | melting point | inhibition at 1 µM (human adenosine A2BR) | A2AR vs. [³H]MSX-2 % Inhibition ± SEM at 1 µM (human adenosine A2AR; 1 µM, CHO cells)
CCCn1c(=O)c2c(nc(NCc3ccccc3Cl)n2C)n(C)c1=O [compound 5, 8-((2-Chlorobenzyl)amino)-3,7-dimethyl-1-propyl-3,7-dihydro-1H-purine-2,6-dione] | 8% | 26% | > 1000 nM | 832 ± 133 nM | 4% | > 1000 nM | 302 ± 34 nM | 190 to 191 °C |  | 
CCCn1c(=O)c2c(nc(NCc3ccccc3Br)n2C)n(C)c1=O [compound 12, 8-((2-Bromobenzyl)amino)-3,7-dimethyl-1-propyl-3,7-dihydro-1H-purine-2,6-dione] | 7% | 30% | > 1000 nM | > 1000 nM | 8% | > 1000 nM | 361 ± 82 nM | 206 to 207 °C | 33% | 
CCCn1c(=O)c2c(nc(NCc3ccccc3F)n2C)n(C)c1=O [compound 13, 8-((2-Fluorobenzyl)amino)-3,7-dimethyl-1-propyl-3,7-dihydro-1H-purine-2,6-dione] | 15% | 32% | > 1000 nM | > 1000 nM | 6% | > 1000 nM | > 1000 nM | 224 to 226 °C | 21% | 47 ± 2%
CCCn1c(=O)c2c(nc(NCc3c(F)cccc3Cl)n2C)n(C)c1=O [compound 14, 8-((2-Chloro-6-fluorobenzyl)amino)-3,7-dimethyl-1-propyl-3,7-dihydro-1H-purine-2,6-dione] | 9% | 29% | > 1000 nM | 687 ± 147 nM | 18% | > 1000 nM | 124 ± 26 nM | 241 to 243 °C |  | 
CCCn1c(=O)c2c(nc(NCc3cccc(Cl)c3)n2C)n(C)c1=O [compound 15, 8-((3-Chlorobenzyl)amino)-3,7-dimethyl-1-propyl-3,7-dihydro-1H-purine-2,6-dione] | 10% | 40% | > 1000 nM | > 1000 nM | 0% | > 1000 nM | 588 ± 74 nM | 185 to 187 °C | 34% | 
CCCn1c(=O)c2c(nc(NCc3cccc(Br)c3)n2C)n(C)c1=O [compound 16, 8-((3-Bromobenzyl)amino)-3,7-dimethyl-1-propyl-3,7-dihydro-1H-purine-2,6-dione] | 11% |  | 340 ± 73 nM | > 1000 nM | 11% | > 1000 nM | 254 ± 59 nM | 220 to 222 °C | 30% | 
CCCn1c(=O)c2c(nc(NCc3cccc(OC)c3)n2C)n(C)c1=O [compound 17, 8-((3-methoxybenzyl)amino)-3,7-dimethyl-1-propyl-3,7-dihydro-1H-purine-2,6-dione] | 5% | 17% | > 1000 nM | > 1000 nM | 6% | > 1000 nM | 605 ± 120 nM | 173 to 175 °C | 20% | 
CCCn1c(=O)c2c(nc(NCc3ccc(OC)c(OC)c3)n2C)n(C)c1=O [compound 18, 8-((3,4-dimethoxybenzyl)amino)-3,7-dimethyl-1-propyl-3,7-dihydro-1H-purine-2,6-dione] | 2% | 7% | > 1000 nM | > 1000 nM | -5% | > 1000 nM | 773 ± 127 nM | 200 to 201 °C | 17% | 
C#CCn1c(=O)c2c(nc(NCc3ccccc3Br)n2C)n(C)c1=O [compound 20, 8-((2-Bromobenzyl)amino)-3,7-dimethyl-1-(prop-2-yn-1-yl)-3,7-dihydro-1H-purine-2,6-dione] | 32% | 44% | > 1000 nM | > 1000 nM | 13% | > 1000 nM | 137 ± 35 nM | 210 to 212 °C | 25% | 
C#CCn1c(=O)c2c(nc(NCc3ccccc3F)n2C)n(C)c1=O [compound 21, 8-((2-Fluorobenzyl)amino)-3,7-dimethyl-1-(prop-2-yn-1-yl)-3,7-dihydro-1H-purine-2,6-dione] | 8% |  | 353 ± 42 nM | > 1000 nM | 21% | > 1000 nM | 287 ± 90 nM | 224 to 226 °C | 41% | 
C#CCn1c(=O)c2c(nc(NCc3cccc(Cl)c3)n2C)n(C)c1=O [compound 23, 8-((3-Chlorobenzyl)amino)-3,7-dimethyl-1-(prop-2-yn-1-yl)-3,7-dihydro-1H-purine-2,6-dione] | 8% |  | 334 ± 122 nM | > 1000 nM | 14% | > 1000 nM | 126 ± 15 nM | 234 to 236 °C | 26% | 
C#CCn1c(=O)c2c(nc(NCc3cccc(OC)c3)n2C)n(C)c1=O [compound 25, 8-((3-Methoxybenzyl)amino)-3,7-dimethyl-1-(prop-2-yn-1-yl)-3,7-dihydro-1H-purine-2,6-dione] | 11% |  | 460 ± 99 nM | > 1000 nM | 0% | > 1000 nM | 225 ± 40 nM | 217 to 219 °C | 35% | 
C#CCn1c(=O)c2c(nc(NCc3ccc(OC)c(OC)c3)n2C)n(C)c1=O [compound 26, 8-((3,4-dimethoxybenzyl)amino)-3,7-dimethyl-1-(prop-2-yn-1-yl)-3,7-dihydro-1H-purine-2,6-dione] | 3% | -2% | > 1000 nM | > 1000 nM | 2% | > 1000 nM | 108 ± 22 nM | 247 to 249 °C | 28% | 
